Assay results: patent US20260200897A1, “4-((5-(3-(4-(PYRIDIN-2-YL)CYCLOPENTYL)-1H-PYRAZOL-3-YL)AMINO)-BENZENESULFONAMIDE DERIVATIVES AND SIMILAR COMPOUNDS AS CDK INHIBITORS FOR THE TREATMENT OF CANCER” (BeOne Medicines I GmbH, priority 2023, published 2026)

Columns and labels:
CDK2/Cyclin E1 = CDK2/Cyclin E1 (Homo sapiens, UniProt P24941); assay: CDK2/Cyclin E1 TR-FRET biochemical assay, 1 mM ATP; settings: 0.15 μM Rb (Ser780)-biotin substrate, 90 min reaction, Table 2
CDK1/Cyclin B1 = CDK1/Cyclin B1 (Homo sapiens, UniProt P06493); assay: CDK1/Cyclin B1 TR-FRET biochemical assay, 1 mM ATP; settings: 0.15 μM Rb (Ser780)-biotin substrate, 90 min reaction, Table 2
Sequence of CDK1/Cyclin B1 (P06493 whole entry): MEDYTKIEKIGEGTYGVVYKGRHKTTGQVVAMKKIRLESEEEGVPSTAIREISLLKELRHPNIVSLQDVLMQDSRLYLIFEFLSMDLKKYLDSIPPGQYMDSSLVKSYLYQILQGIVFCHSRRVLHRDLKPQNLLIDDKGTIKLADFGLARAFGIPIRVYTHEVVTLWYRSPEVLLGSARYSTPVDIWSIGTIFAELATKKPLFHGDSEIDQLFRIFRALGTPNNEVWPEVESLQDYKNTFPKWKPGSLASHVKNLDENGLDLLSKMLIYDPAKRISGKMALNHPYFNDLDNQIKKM
Sequence of CDK1/Cyclin B1 (P14635 whole entry partner): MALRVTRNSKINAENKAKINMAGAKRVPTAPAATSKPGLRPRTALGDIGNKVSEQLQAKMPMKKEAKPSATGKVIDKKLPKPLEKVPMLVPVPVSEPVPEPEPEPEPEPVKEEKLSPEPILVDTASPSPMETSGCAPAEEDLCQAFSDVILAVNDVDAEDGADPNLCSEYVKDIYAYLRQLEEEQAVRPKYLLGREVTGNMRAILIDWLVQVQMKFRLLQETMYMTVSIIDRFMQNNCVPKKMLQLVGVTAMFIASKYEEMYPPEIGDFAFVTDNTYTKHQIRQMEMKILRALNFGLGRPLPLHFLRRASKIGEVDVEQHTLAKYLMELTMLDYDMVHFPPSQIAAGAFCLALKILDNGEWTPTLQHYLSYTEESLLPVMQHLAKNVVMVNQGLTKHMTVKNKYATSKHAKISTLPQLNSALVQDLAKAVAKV

Row | Compound | IC50 (CDK2/Cyclin E1) | IC50 (CDK1/Cyclin B1)
1 | CC(C)c1ccnc(C2CCC(c3cc(Nc4ccc5c(c4F)CS(=O)(=O)C5)n[nH]3)C2)c1 (centres unmarked) [Example 178, 4-fluoro-5-((5-(3-(4-isopropylpyridin-2-yl)cyclopentyl)-1H-pyrazol-3-yl)amino)-1,3-dihydrobenzo[c]thiophene 2,2-dioxide] | 7 nM | 1520 nM
2 | CC(C)c1ccnc(C2CCC(c3cc(Nc4ccc5c(c4F)CS(=O)(=O)N5)n[nH]3)C2)n1 (centres unmarked) [Example 165, 4-fluoro-5-((5-(3-(4-isopropylpyrimidin-2-yl)cyclopentyl)-1H-pyrazol-3-yl)amino)-1,3-dihydrobenzo[c]isothiazole 2,2-dioxide] | 1.7 nM | 126 nM
3 | CC(C)(O)c1cc(C2CCC(c3cc(Nc4ccc5c(c4F)CS(=O)(=O)N5)n[nH]3)C2)n[nH]1 (centres unmarked) [Example 150, 4-fluoro-5-((5-(3-(5-(2-hydroxypropan-2-yl)-1H-pyrazol-3-yl)cyclopentyl)-1H-pyrazol-3-yl)amino)-1,3-dihydrobenzo[c]isothiazole 2,2-dioxide] | 189 nM | > 10000 nM
4 | CCc1ccnc(C2CCC(c3cc(Nc4ccc5c(c4F)CNS5(=O)=O)n[nH]3)C2)n1 (centres unmarked) [Example 125, 5-((5-(3-(4-ethylpyrimidin-2-yl)cyclopentyl)-1H-pyrazol-3-yl)amino)-4-fluoro-2,3-dihydrobenzo[d]isothiazole 1,1-dioxide] | 40 nM | 2760 nM
5 | CC(C)(C)c1cnnc(C2CCC(c3cc(Nc4ccc(S(N)(=O)=O)cc4F)n[nH]3)C2)c1 (centres unmarked) [Example 3, 4-((5-(3-(5-(tert-butyl)pyridazin-3-yl)cyclopentyl)-1H-pyrazol-3-yl)amino)-3-fluorobenzenesulfonamide] | 147 nM | > 10000 nM
6 | CC(C)(C)c1cc(O[C@@H]2CC[C@H](c3cc(Nc4ccc5c(c4F)CNS5(=O)=O)n[nH]3)C2)ncn1 (relative stereo) [Example 38, cis-5-((5-(3-((6-(tert-butyl)pyrimidin-4-yl)oxy)cyclopentyl)-1H-pyrazol-3-yl)amino)-4-fluoro-2,3-dihydrobenzo[d]isothiazole 1,1-dioxide] | 2370 nM | > 10000 nM
7 | CC(C)(C)n1cc(C2CCC(c3cc(Nc4ccc5c(c4F)CNS5(=O)=O)n[nH]3)C2)cn1 (centres unmarked) [Example 99, 5-((5-(3-(1-(tert-butyl)-1H-pyrazol-4-yl)cyclopentyl)-1H-pyrazol-3-yl)amino)-4-fluoro-2,3-dihydrobenzo[d]isothiazole 1-dioxide] | 3290 nM | > 10000 nM
8 | Cc1ccnc(C2CCC(c3cc(Nc4ccc5c(c4F)CNS5(=O)=O)n[nH]3)C2)n1 (centres unmarked) [Example 124, 4-fluoro-5-((5-(3-(4-methylpyrimidin-2-yl)cyclopentyl)-1H-pyrazol-3-yl)amino)-2,3-dihydrobenzo[d]isothiazole 1,1-dioxide] | 107 nM | 8470 nM
9 | CC(C)(C)c1cnc(C2CCC(c3cc(Nc4ccc5c(c4)CN=S5(C)=O)n[nH]3)C2)o1 (single isomer, unassigned) [Example 169b, 5-((5-(3-(5-(tert-butyl)oxazol-2-yl)cyclopentyl)-1H-pyrazol-3-yl)amino)-1-methyl-3H-1λ^4-benzo[d]isothiazole 1-oxide] | 21 nM | 2350 nM
10 | COc1cccc(C2CCC(c3cc(Nc4ccc5c(c4F)CS(=O)(=O)N5)n[nH]3)C2)n1 (centres unmarked) [Example 160, 4-fluoro-5-((5-(3-(6-methoxypyridin-2-yl)cyclopentyl)-1H-pyrazol-3-yl)amino)-1,3-dihydrobenzo[c]isothiazole 2,2-dioxide] | 868 nM | > 10000 nM
11 | CC(C)(C)n1ccc(C2CCC(c3cc(Nc4ccc5c(c4F)CNS5(=O)=O)n[nH]3)C2)n1 (centres unmarked) [Example 98, 5-((5-(3-(1-(tert-butyl)-1H-pyrazol-3-yl)cyclopentyl)-1H-pyrazol-3-yl)amino)-4-fluoro-2,3-dihydrobenzo[d]isothiazole 1,1-dioxide] | 453 nM | > 10000 nM
12 | CC(C)(C)c1ccnc(C2CCC(c3cc(Nc4ccc5c(c4F)CNS5(=O)=O)[nH]n3)C2)c1 (centres unmarked) [Example 117, 5-((3-(3-(4-(tert-butyl)pyridin-2-yl)cyclopentyl)-1H-pyrazol-5-yl)amino)-4-fluoro-2,3-dihydrobenzo[d]isothiazole 1,1-dioxide] | 34 nM | 6770 nM
13 | CC(C)(C)c1ccc([C@@H]2CC[C@H](c3cc(Nc4ccc5c(c4F)CNS5(=O)=O)n[nH]3)C2)o1 (relative stereo) [Example 107, cis-5-((5-(3-(5-(tert-butyl)furan-2-yl)cyclopentyl)-1H-pyrazol-3-yl)amino)-4-fluoro-2,3-dihydrobenzo[d]isothiazole 1,1-dioxide] | 2440 nM | > 10000 nM
14 | CC(C)(C)c1cnc(C2CCC(c3cc(Nc4ccc5c(c4)CN=S5(C)=O)n[nH]3)C2)o1 (single isomer, unassigned) [Example 169c, 5-((5-(3-(5-(tert-butyl)oxazol-2-yl)cyclopentyl)-1H-pyrazol-3-yl)amino)-1-methyl-3H-1λ^4-benzo[d]isothiazole 1-oxide] | 57 nM | 6710 nM
15 | CC(C)(C)c1cnc(C2CCC(c3cc(Nc4ccc(S(N)(=O)=O)cc4F)n[nH]3)C2)o1 (single isomer, unassigned) [Example 6c, 4-((5-(3-(5-(tert-butyl)oxazol-2-yl)cyclopentyl)-1H-pyrazol-3-yl)amino)-3-fluorobenzenesulfonamide] | 1910 nM | > 10000 nM
16 | Cc1nc(C2CCC(c3cc(Nc4cc5c(cc4F)S(=O)(=O)NC5)n[nH]3)C2)oc1C(C)(C)C (centres unmarked) [Example 19, 5-((5-(3-(5-(tert-butyl)-4-methyloxazol-2-yl)cyclopentyl)-1H-pyrazol-3-yl)amino)-6-fluoro-2,3-dihydrobenzo[d]isothiazole 1,1-dioxide] | 43 nM | > 10000 nM
17 | CC(C)(C)c1cc(C2CCC(c3cc(Nc4ccc5c(c4F)CNS5(=O)=O)n[nH]3)C2)[nH]n1 (centres unmarked) [Example 100, 5-((5-(3-(3-(tert-butyl)-1H-pyrazol-5-yl)cyclopentyl)-1H-pyrazol-3-yl)amino)-4-fluoro-2,3-dihydrobenzo[d]isothiazole 1,1-dioxide] | 173 nM | > 10000 nM
18 | CC(C)(C)c1cc(C2CCC(c3cc(Nc4ccc5c(c4F)CNS5(=O)=O)n[nH]3)C2)ccn1 (centres unmarked) [Example 129, 5-((5-(3-(2-(tert-butyl)pyridin-4-yl)cyclopentyl)-1H-pyrazol-3-yl)amino)-4-fluoro-2,3-dihydrobenzo[d]isothiazole 1,1-dioxide] | 8020 nM | > 10000 nM
19 | CC(C)(C)c1cnnc(C2CCC(c3cc(Nc4ccc5c(c4F)CS(=O)(=O)N5)n[nH]3)C2)c1 (centres unmarked) [Example 163, 5-((5-(3-(5-(tert-butyl)pyridazin-3-yl)cyclopentyl)-1H-pyrazol-3-yl)amino)-4-fluoro-1,3-dihydrobenzo[c]isothiazole 2,2-dioxide] | 16 nM | 2020 nM
20 | Cc1cc(C(C)(C)C)cc(C2CCC(c3cc(Nc4ccc(S(N)(=O)=O)cc4F)n[nH]3)C2)n1 (centres unmarked) [Example 2, 4-((5-(3-(4-(tert-butyl)-6-methylpyridin-2-yl)cyclopentyl)-1H-pyrazol-3-yl)amino)-3-fluorobenzenesulfonamide] | 5680 nM | > 10000 nM
21 | CC(C)(C)c1cccc(C2CCC(c3cc(Nc4ccc5c(c4F)CNS5(=O)=O)[nH]n3)C2)n1 (centres unmarked) [Example 118, 5-((3-(3-(6-(tert-butyl)pyridin-2-yl)cyclopentyl)-1H-pyrazol-5-yl)amino)-4-fluoro-2,3-dihydrobenzo[d]isothiazole 1,1-dioxide] | 725 nM | > 10000 nM
22 | CC(C)(C)c1nnc([C@H]2CC[C@H](c3cc(Nc4ccc5c(c4F)CNS5(=O)=O)n[nH]3)C2)o1 (relative stereo) [Example 97, trans-5-((5-(3-(5-(tert-butyl)-1,3,4-oxadiazol-2-yl)cyclopentyl)-1H-pyrazol-3-yl)amino)-4-fluoro-2,3-dihydrobenzo[d]isothiazole 1,1-dioxide] | 3180 nM | > 10000 nM
23 | CC(C)(C)c1cnc(C2CCC(c3cc(Nc4ccc5c(c4F)CNS5(=O)=O)n[nH]3)C2)[nH]1 (centres unmarked) [Example 103, 5-((5-(3-(5-(tert-butyl)-1H-imidazol-2-yl)cyclopentyl)-1H-pyrazol-3-yl)amino)-4-fluoro-2,3-dihydrobenzo[d]isothiazole 1,1-dioxide] | > 10000 nM | > 10000 nM
24 | CC(C)(C)c1cnnc(C2CCC(c3cc(Nc4ccc5c(c4F)CNS5(=O)=O)n[nH]3)C2)c1 (centres unmarked) [Example 131, 5-((5-(3-(5-(tert-butyl)pyridazin-3-yl)cyclopentyl)-1H-pyrazol-3-yl)amino)-4-fluoro-2,3-dihydrobenzo[d]isothiazole 1,1-dioxide] | 167 nM | > 10000 nM
25 | CC(C)(C)c1cn([C@@H]2CC[C@H](c3cc(Nc4ccc5c(c4F)CNS5(=O)=O)n[nH]3)C2)nn1 (relative stereo) [Example 90, cis-5-((5-(3-(4-(tert-butyl)-1H-1,2,3-triazol-1-yl)cyclopentyl)-1H-pyrazol-3-yl)amino)-4-fluoro-2,3-dihydrobenzo[d]isothiazole 1,1-dioxide] | 3310 nM | > 10000 nM
26 | CC(C)(C)c1csnc1O[C@@H]1CC[C@H](c2cc(Nc3ccc4c(c3F)CNS4(=O)=O)n[nH]2)C1 (relative stereo) [Example 56, cis-5-((5-(3-((4-(tert-butyl)isothiazol-3-yl)oxy)cyclopentyl)-1H-pyrazol-3-yl)amino)-4-fluoro-2,3-dihydrobenzo[d]isothiazole 1,1-dioxide] | 4.3 nM | 3500 nM
27 | CC(C)c1cnc(C2CCC(c3cc(Nc4ccc(S(N)(=O)=O)cc4F)n[nH]3)C2)o1 (centres unmarked) [Example 7, 3-fluoro-4-((5-(3-(5-isopropyloxazol-2-yl)cyclopentyl)-1H-pyrazol-3-yl)amino)benzenesulfonamide] | 93 nM | > 10000 nM
28 | CC(C)(C)c1ccc([C@H]2CC[C@H](c3cc(Nc4ccc5c(c4F)CNS5(=O)=O)n[nH]3)C2)o1 (relative stereo) [Example 108, trans-5-((5-(3-(5-(tert-butyl)furan-2-yl)cyclopentyl)-1H-pyrazol-3-yl)amino)-4-fluoro-2,3-dihydrobenzo[d]isothiazole 1,1-dioxide] | 8510 nM | > 10000 nM
